pIC50: −log10 of the molar value.
Assays:
[1] = test system: Spontaneously Hypertensive Rats; test: Spontaneously Hypertensive Rat (SHR) Test, hemodynamics in anesthetized rats; format: in vivo, Spontaneously Hypertensive Rat (Sprague Dawley); conditions: for HR (Heart Rate: change from basal) / LVPT (time for Left Ventricular Pressure to decay from peak to 50%, % of basal) / MBP (Mean Blood Pressure: change from basal) / RT64 (change in time from maximal relaxation, % of basal) / dP/dT40 (change in rate of systolic pressure increase of left ventricle measured at 40 mm Hg from basal): anesthetized SHR; for effect on blood pressure (in words) / effect on dP/dT40 (in words) / effect on heart rate (in words) / effect on myocardial relaxation time constants (in words): SHR
Procedure: Male Retired Breeder Spontaneously Hypertensive Rats (SHR) (Sprague Dawley, 250-350 g) are anesthetized by i.p. injection of Sodium Thiopental 50 mg/kg. A catheter is inserted into the duodenum for maintenance of anesthesia throughout the experiment. A tube is inserted through a lateral incision in the trachea. The left carotid artery is exposed and a Millar SPR-249 (2-F) pressure probe is inserted and passed into the left ventricle of the heart. Left ventricular pressure (LVP), the first differential of the LVP (+dP/dT,-dP/dT), the left ventricular end diastolic pressure (LVEDP) and the differential of the increase in LVP measured at a constant pressure of 40 mm Hg (dP/dT40) are measured via this probe. In addition to these parameters, two indices of myocardial diastolic relaxation are measured namely the RT64 (time in msec from the peak derivative of maximal relaxation to 64% of that value) and the Left Ventricular Pressure Time Constant (LVPT), the half-time for decay of the LVP from peak pressure to 50% of that pressure. […] Results also are shown graphically on a Gould RS3800 Recorder. A saline filled cannula is passed into the femoral vein for infusion of drugs and one is placed into the femoral artery for measurement and recording or arterial blood pressure (Statham P23Db pressure transducer). From this signal the diastolic, systolic and mean blood pressure are derived as well as the heart rate. After surgery, the preparation is left to stabilize for 45 minutes after which compounds, dissolved in polyethylene glycol, are slowly infused with a Sage Instruments Infusion pump into the femoral vein. […] After completion of the last infusion, hemodynamic parameters are observed over 30 min and then a standard dose of 3.0 mg/kg milrinone is infused (over 5 min) to test preparation responsiveness. In the SHR, the following results were obtained for several known cardiovascular agents and for the compound of Examples 10,11,15 and 16.

rat aorta = test: Rat Aorta Protocol: relaxation of phenylephrine-contracted rings of rat aorta (endothelium removed)
Procedure: Rings of rat aorta (endothelium removed) were prepared for the measurement of isometric force in isolated tissue organ chambers essentially as previously described by T. J. Rimele et al in the Journal of Pharmacol. Exp. Ther. 245:102-111 (1988). The experimental portion of the protocol began with the addition of methylene blue (1×10^-5 M) and propranolol (1×10^-6 M) to each organ chamber to inhibit basal cGMP accumulation due to soluble guanylate cyclase and beta-adrenoceptors.Phenylephrine (1×10^-7 M) was then added and the rings were allowed to obtain a stable contractile response after which time, the test compound was added in a cumulative fashion. The relaxation induced by each concentration of the test compound was expressed as a percentage of the maximal relaxation produced by nitroprusside (1×10^-4 M) The results were graphically represented as a plot of the percentage relaxation vs. the negative log of the molar concentration of the test compound. The IC50 (concentration of test compound which produced a relaxation equivalent to 50% of the maximal relaxation induced by nitroprusside) was determined for each tissue.

| Compound | HR (Heart Rate: change from basal) ([1]; 0.3 mg/kg i.v.) | LVPT (time for Left Ventricular Pressure to decay from peak to 50%, % of basal) ([1]; 0.3 mg/kg i.v.) | MBP (Mean Blood Pressure: change from basal) ([1]; 0.3 mg/kg i.v.) | RT64 (change in time from maximal relaxation, % of basal) ([1]; 0.3 mg/kg i.v.) | dP/dT40 (change in rate of systolic pressure increase of left ventricle measured at 40 mm Hg from basal) ([1]; 0.3 mg/kg i.v.) | HR (Heart Rate: change from basal) ([1]; 1.0 mg/kg i.v.) | LVPT (time for Left Ventricular Pressure to decay from peak to 50%, % of basal) ([1]; 1.0 mg/kg i.v.) | MBP (Mean Blood Pressure: change from basal) ([1]; 1.0 mg/kg i.v.) | RT64 (change in time from maximal relaxation, % of basal) ([1]; 1.0 mg/kg i.v.) | dP/dT40 (change in rate of systolic pressure increase of left ventricle measured at 40 mm Hg from basal) ([1]; 1.0 mg/kg i.v.) | HR (Heart Rate: change from basal) ([1]; 3.0 mg/kg i.v.) | LVPT (time for Left Ventricular Pressure to decay from peak to 50%, % of basal) ([1]; 3.0 mg/kg i.v.) | MBP (Mean Blood Pressure: change from basal) ([1]; 3.0 mg/kg i.v.) | RT64 (change in time from maximal relaxation, % of basal) ([1]; 3.0 mg/kg i.v.) | dP/dT40 (change in rate of systolic pressure increase of left ventricle measured at 40 mm Hg from basal) ([1]; 3.0 mg/kg i.v.) | HR (Heart Rate: change from basal) ([1]; 10 mg/kg i.v.) | LVPT (time for Left Ventricular Pressure to decay from peak to 50%, % of basal) ([1]; 10 mg/kg i.v.) | MBP (Mean Blood Pressure: change from basal) ([1]; 10 mg/kg i.v.) | RT64 (change in time from maximal relaxation, % of basal) ([1]; 10 mg/kg i.v.) | dP/dT40 (change in rate of systolic pressure increase of left ventricle measured at 40 mm Hg from basal) ([1]; 10 mg/kg i.v.) | also measured |
| --- | --- | --- | --- | --- | --- | --- | --- | --- | --- | --- | --- | --- | --- | --- | --- | --- | --- | --- | --- | --- | --- |
| COC(=O)C1=C(C)NC(C)=C(C(=O)OCCNC(=O)COc2ccc(-c3cc(C#N)c(=O)[nH]c3C)cc2)C1c1cccc([N+](=O)[O-])c1 (racemic) [Example 10, (±)-2,6-dimethyl-3-carbomethoxy-4-(3-nitrophenyl)-5-{4-[1,2-dihydro-2-oxo-3-cyano-6-methyl-5(1H)-pyridy]phenoxymethylenecarboxyamidoethyloxycarbonyl}-1,4-dihydropyridine] | -1.8% | -5.1% | -2.6% | -2.6% | 0% | -2.5% | -7.4% | -3.8% | -5.2% | 1.5% | 1.1% | -14% | -6.3% | -13.2% | 4.2% | 6.4% | -25% | -23% | -19.3% | 24.7% | effect on blood pressure (in words) ([1]; 0.3 to 10 mg/kg i.v.): hypotension; effect on dP/dT40 (in words) ([1]; 0.3 to 10 mg/kg i.v.): an increase in dP/dT40; effect on heart rate (in words) ([1]; 0.3 to 10 mg/kg i.v.): little change in heart rate; effect on myocardial relaxation time constants (in words) ([1]; 0.3 to 10 mg/kg i.v.): reduction in the time constants for myocardial relaxation; Emax at 100 µM (rat aorta; highest dose tested (100 micromolar), read-out: maximal response (relaxation, % of maximal relaxation by nitroprusside)): 96%; pIC50 (rat aorta; phenylephrine 1×10^-7 M contracted, methylene blue and propranolol present, read-out: IC50 (concentration producing relaxation equivalent to 50% of the maximal relaxation induced by nitroprusside)): 5.68 |
| NNc1nncc2ccccc12 [Hydralazine] | 0% | 4.1% | -1.2% | 2% | 0% | 8% | 2.3% | -17.8% | 0% | 3.4% | 8.8% | -7.8% | -37.5% | -12.5% | 0% | 17% | -21.9% | -48% | -22.6% | 6.9% | effect on blood pressure (in words) ([1]; 0.3 to 10 mg/kg i.v.): hypotension; effect on dP/dT40 (in words) ([1]; 0.3 to 10 mg/kg i.v.): little change in dP/dT40; effect on heart rate (in words) ([1]; 0.3 to 10 mg/kg i.v.): reflex tachycardia; effect on myocardial relaxation time constants (in words) ([1]; 0.3 to 10 mg/kg i.v.): reduction in myocardial relaxation time constants only at 3 and 10 mg/kg |
| Cc1[nH]c(=O)c(C#N)cc1-c1ccncc1 [Milrinone] | 10% | -15.5% | -10% | -13.7% | 27% | 12.4% | -22% | -29% | -20.5% | 28.3% | 16.2% | -30% | -29% | -36% | 34% | – | – | – | – | – | effect on blood pressure (in words) ([1]; 0.3 to 3 mg/kg i.v.): hypotension; effect on dP/dT40 (in words) ([1]; 0.3 to 3 mg/kg i.v.): an increase in dP/dT40; effect on heart rate (in words) ([1]; 0.3 to 3 mg/kg i.v.): tachycardia; effect on myocardial relaxation time constants (in words) ([1]; 0.3 to 3 mg/kg i.v.): a decrease in myocardial relaxation time constants (increased rate of relaxation) |
| COC(=O)C1=C(C)NC(C)=C(C(=O)OC)C1c1ccccc1[N+](=O)[O-] [Nifedipine] | 1% | 3% | -30% | -7% | 2% | -5% | -7% | -47.5% | -21% | -15.5% | -7.5% | -18.5% | -47.5% | -25% | -28.8% | – | – | – | – | – | HR (Heart Rate: change from basal) ([1]; 0.1 mg/kg i.v.): 3%; LVPT (time for Left Ventricular Pressure to decay from peak to 50%, % of basal) ([1]; 0.1 mg/kg i.v.): -8%; MBP (Mean Blood Pressure: change from basal) ([1]; 0.1 mg/kg i.v.): -12%; RT64 (change in time from maximal relaxation, % of basal) ([1]; 0.1 mg/kg i.v.): -7%; dP/dT40 (change in rate of systolic pressure increase of left ventricle measured at 40 mm Hg from basal) ([1]; 0.1 mg/kg i.v.): 7.5%; effect on blood pressure (in words) ([1]; 0.1 to 3 mg/kg i.v.): hypotension; effect on dP/dT40 (in words) ([1]; 0.1 to 3 mg/kg i.v.): a depression of dP/dT40; effect on heart rate (in words) ([1]; 0.1 to 3 mg/kg i.v.): little change in heart rate; effect on myocardial relaxation time constants (in words) ([1]; 0.1 to 3 mg/kg i.v.): significant reduction of myocardial relaxation time constants only at the highest dose tested (3 mg/kg) |

Source: patent US5100892A, “Dihydropyridine vasodilator agents” (Glaxo Inc., priority 1990, dated 1992)
